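Tested at 5 concentrations; 48 h exposure; 96-well plates; endpoints linearly interpolated, else capped at highest concentration. TGI: total growth inhibition.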
How the values were obtained:
Test in all cases: NCI-60 cell line screen, 48 h
HCC-2998 colon = test system: HCC-2998 colon
UACC-62 melanoma = test system: UACC-62 melanoma
MOLT-4 leukemia = test system: MOLT-4 leukemia
K-562 leukemia = test system: K-562 leukemia
KM12 colon = test system: KM12 colon
SF-295 CNS = test system: SF-295 CNS
EKVX NSCLC = test system: EKVX NSCLC
MALME-3M melanoma = test system: MALME-3M melanoma
UO-31 renal = test system: UO-31 renal
NCI-H23 lung = test system: NCI-H23 lung
UACC-257 melanoma = test system: UACC-257 melanoma
U251 CNS = test system: U251 CNS
A498 renal = test system: A498 renal
HS 578T breast = test system: HS 578T breast
SK-MEL-5 melanoma = test system: SK-MEL-5 melanoma
SN12C renal = test system: SN12C renal
RPMI-8226 leukemia = test system: RPMI-8226 leukemia
HCT-15 colon = test system: HCT-15 colon
786-0 renal = test system: 786-0 renal
M14 melanoma = test system: M14 melanoma
ACHN renal = test system: ACHN renal
IGROV1 ovarian = test system: IGROV1 ovarian
RXF 393 renal = test system: RXF 393 renal
TK-10 renal = test system: TK-10 renal
CAKI-1 renal = test system: CAKI-1 renal
SK-MEL-2 melanoma = test system: SK-MEL-2 melanoma
SF-268 CNS = test system: SF-268 CNS
NCI-H522 lung = test system: NCI-H522 lung
MDA-MB-435 = test system: MDA-MB-435
OVCAR-4 ovarian = test system: OVCAR-4 ovarian
MDA-MB-231 breast = test system: MDA-MB-231 breast
DU-145 prostate = test system: DU-145 prostate
A549 NSCLC = test system: A549 NSCLC
NCI-H226 lung = test system: NCI-H226 lung
OVCAR-3 ovarian = test system: OVCAR-3 ovarian
OVCAR-5 ovarian = test system: OVCAR-5 ovarian
PC-3 prostate = test system: PC-3 prostate
BT-549 breast = test system: BT-549 breast
SK-MEL-28 melanoma = test system: SK-MEL-28 melanoma
HOP-92 NSCLC = test system: HOP-92 NSCLC
CCRF-CEM leukemia = test system: CCRF-CEM leukemia
HT29 colon = test system: HT29 colon
NCI/ADR-RES ovarian = test system: NCI/ADR-RES ovarian
HCT-116 colon = test system: HCT-116 colon
SF-539 CNS = test system: SF-539 CNS
HOP-62 NSCLC = test system: HOP-62 NSCLC
OVCAR-8 ovarian = test system: OVCAR-8 ovarian
SW-620 colon = test system: SW-620 colon
NCI-H460 lung = test system: NCI-H460 lung
SNB-19 CNS = test system: SNB-19 CNS
LOX IMVI melanoma = test system: LOX IMVI melanoma
MCF7 breast = test system: MCF7 breast
SNB-75 CNS = test system: SNB-75 CNS
SK-OV-3 ovarian = test system: SK-OV-3 ovarian
COLO 205 colon = test system: COLO 205 colon
T-47D breast = test system: T-47D breast
HL-60(TB) leukemia = test system: HL-60(TB) leukemia
SR leukemia = test system: SR leukemia

Cc1sc2nc(-c3cc([N+](=O)[O-])c(Cl)cc3Cl)c(/C=N/N=C(N)N)n2c1C
TGI (HCC-2998 colon): 5.39 µM
TGI (UACC-62 melanoma): 39.5 µM
TGI (MOLT-4 leukemia): 4.64 µM
TGI (K-562 leukemia): 9.95 µM
TGI (KM12 colon): 19.5 µM
TGI (SF-295 CNS): 36.4 µM
TGI (EKVX NSCLC): 48.4 µM
TGI (MALME-3M melanoma): 39.3 µM
TGI (UO-31 renal): 26.4 µM
TGI (NCI-H23 lung): 18.7 µM
TGI (UACC-257 melanoma): 26 µM
TGI (U251 CNS): > 100 µM
TGI (A498 renal): 38.6 µM
TGI (HS 578T breast): 82.7 µM
TGI (SK-MEL-5 melanoma): 27.1 µM
TGI (SN12C renal): 28.5 µM
TGI (RPMI-8226 leukemia): 54 µM
TGI (HCT-15 colon): > 100 µM
TGI (786-0 renal): > 100 µM
TGI (M14 melanoma): 7 µM
TGI (ACHN renal): 39.2 µM
TGI (IGROV1 ovarian): 9.12 µM
TGI (RXF 393 renal): 20.6 µM
TGI (TK-10 renal): 35.7 µM
TGI (CAKI-1 renal): 33.9 µM
TGI (SK-MEL-2 melanoma): 5.78 µM
TGI (SF-268 CNS): 66.1 µM
TGI (NCI-H522 lung): 34.2 µM
TGI (MDA-MB-435): 16.6 µM
TGI (OVCAR-4 ovarian): 9 µM
TGI (MDA-MB-231 breast): 34.6 µM
TGI (DU-145 prostate): 39.1 µM
TGI (A549 NSCLC): > 100 µM
TGI (NCI-H226 lung): 75.2 µM
TGI (OVCAR-3 ovarian): 30.3 µM
TGI (OVCAR-5 ovarian): > 100 µM
TGI (PC-3 prostate): 36.2 µM
TGI (BT-549 breast): 12 µM
TGI (SK-MEL-28 melanoma): 6.58 µM
TGI (HOP-92 NSCLC): 31.5 µM
TGI (CCRF-CEM leukemia): > 100 µM
TGI (HT29 colon): 9 µM
TGI (NCI/ADR-RES ovarian): > 100 µM
TGI (HCT-116 colon): > 100 µM
TGI (SF-539 CNS): 88 µM
TGI (HOP-62 NSCLC): > 100 µM
TGI (OVCAR-8 ovarian): 31.6 µM
TGI (SW-620 colon): 69.3 µM
TGI (NCI-H460 lung): 54.7 µM

Clc1ccc2sc(-n3ccc4ccccc43)nc2c1
TGI (HCC-2998 colon): > 100 µM
TGI (UACC-62 melanoma): > 100 µM
TGI (MOLT-4 leukemia): > 100 µM
TGI (K-562 leukemia): > 100 µM
TGI (EKVX NSCLC): > 100 µM
TGI (SNB-19 CNS): > 100 µM
TGI (LOX IMVI melanoma): > 100 µM
TGI (UO-31 renal): > 100 µM
TGI (NCI-H23 lung): > 100 µM
TGI (MCF7 breast): > 100 µM
TGI (U251 CNS): > 100 µM
TGI (A498 renal): > 100 µM
TGI (HS 578T breast): > 100 µM
TGI (SK-MEL-5 melanoma): > 100 µM
TGI (SN12C renal): > 100 µM
TGI (HCT-15 colon): > 100 µM
TGI (SNB-75 CNS): > 100 µM
TGI (ACHN renal): > 100 µM
TGI (IGROV1 ovarian): > 100 µM
TGI (RXF 393 renal): 69.3 µM
TGI (TK-10 renal): > 100 µM
TGI (SF-268 CNS): > 100 µM
TGI (SK-OV-3 ovarian): > 100 µM
TGI (OVCAR-5 ovarian): > 100 µM
TGI (PC-3 prostate): > 100 µM
TGI (BT-549 breast): > 100 µM
TGI (SK-MEL-28 melanoma): > 100 µM
TGI (CCRF-CEM leukemia): > 100 µM
TGI (HT29 colon): > 100 µM
TGI (NCI/ADR-RES ovarian): > 100 µM
TGI (OVCAR-8 ovarian): > 100 µM
TGI (SW-620 colon): > 100 µM
TGI (NCI-H460 lung): > 100 µM

COc1cc(OC)c(OC)cc1/C=C\c1nccc2ccccc12
TGI (MOLT-4 leukemia): 95.8 µM
TGI (K-562 leukemia): > 100 µM
TGI (KM12 colon): 33.5 µM
TGI (SF-295 CNS): 56.1 µM
TGI (EKVX NSCLC): 89.7 µM
TGI (SNB-19 CNS): 61.4 µM
TGI (COLO 205 colon): 38 µM
TGI (MALME-3M melanoma): > 100 µM
TGI (UO-31 renal): 64.1 µM
TGI (T-47D breast): 80.4 µM
TGI (NCI-H23 lung): 51.7 µM
TGI (U251 CNS): 65.5 µM
TGI (HS 578T breast): 94.3 µM
TGI (SK-MEL-5 melanoma): 29.5 µM
TGI (RPMI-8226 leukemia): 59.2 µM
TGI (M14 melanoma): 31.1 µM
TGI (SNB-75 CNS): 50.6 µM
TGI (IGROV1 ovarian): 87 µM
TGI (RXF 393 renal): 39 µM
TGI (TK-10 renal): 88.9 µM
TGI (CAKI-1 renal): 68.3 µM
TGI (SF-268 CNS): 58.8 µM
TGI (SK-OV-3 ovarian): > 100 µM
TGI (OVCAR-4 ovarian): > 100 µM
TGI (DU-145 prostate): 34.4 µM
TGI (A549 NSCLC): > 100 µM
TGI (HL-60(TB) leukemia): 73.2 µM
TGI (OVCAR-5 ovarian): 98.3 µM
TGI (PC-3 prostate): 60.2 µM
TGI (SK-MEL-28 melanoma): 74.7 µM
TGI (HOP-92 NSCLC): 32.9 µM
TGI (CCRF-CEM leukemia): > 100 µM
TGI (NCI/ADR-RES ovarian): > 100 µM
TGI (SR leukemia): > 100 µM
TGI (HCT-116 colon): 33.4 µM
TGI (OVCAR-8 ovarian): 78.9 µM
TGI (SW-620 colon): 83.4 µM
